Source: PubChem BioAssay AID179 (DTP/NCI, 2004)
Where “and” joins values, the source holds several entries; their conditions need not be identical. Equal values may be shown once. Calls of active or inactive are those of the source.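 The calls were made as follows: active = compounds giving half or more protection of infected cells from virus-caused growth loss, again on retest; inactive = the rest.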

Tested on: CEM cells HIV-1 protection, formazan growth assay
Experiment: NCI AIDS Antiviral Assay
Details: for IC50: measured here: growth of uninfected CEM cells
How it was run: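 Category rules: moderately active means at least 50% protection on retest, and confirmed active means 100% protection reproducibly. The underlying data came from a formazan growth assay in HIV-1-infected CEM cells.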

SMILES | EC50 | IC50 | outcome
O=C(Cc1cccs1)N[C@@H]1C(=O)N2C(C(=O)OC(c3ccccc3)c3ccccc3)=C(CO)CS[C@H]12 | > 200 µM | 195 µM | 
COC[C@H](Cc1ccccc1)N=Cc1ccccc1 | > 200 µM | > 200 µM | 
CCOC(=O)[C@@]1(C(C)=O)CC(C)=C(C)C[S@]1=O | > 200 µM | > 200 µM | 
COC(=O)c1cc2cc(OC)c(OC)cc2cc(C(=O)OC)c1=O | > 10.7 µM | > 10.7 µM | 
O=C(CNc1cccc([N+](=O)[O-])c1)Nn1c(-c2ccccc2)nc2ccccc2c1=O | > 20 µM | 1.05 µM | 
OCC1OC(NC(=S)NCSCCC(F)(F)C(F)(F)C(F)(F)C(F)(F)C(F)(F)C(F)(F)F)C(O)C(O)C1O (stereo not given) | > 200 µM | 7.24 µM | 
CC(C)N1CC2CC(CN(C(=O)c3ccccc3)C2)C1 | > 676 µM | > 676 µM | 
CCOC(=O)c1cc(C2(OC)CCN(Cc3ccccc3)C2=O)c(-c2cc(C)no2)[nH]1 (stereo not given) | > 200 µM | 148 µM | 
O=C1NCCS(=O)(=O)N2CCC[C@@H]12 | > 1230 µM | > 1230 µM | 
COC1=C(C)C(=O)c2nc(Cl)cc(C)c2C1=O |  |  | inactive
CS(=O)(=O)NNS(=O)(=O)c1ccc(F)cc1 | > 251 µM | > 251 µM | 
O=c1[nH]c(=O)n(C2CC(F)C(CO)O2)cc1CO (stereo not given) | > 479 µM | 186 µM | 
CC(Nc1n[nH]c(=O)c2c1nnn2Cc1ccccc1)c1ccccc1 (stereo not given) | 55 µM and 126 µM | 97.7 µM and 447 µM | 
Nc1nc2c(c(=O)[nH]1)N=C(COP(=O)(O)OP(=O)(O)O)CN2 | > 200 µM | 145 µM | 
O=c1nc2c(c(-c3ccc(F)cc3)[nH]1)COC/C2=C\c1ccc(F)cc1 |  |  | inactive
Cc1nc2cc(C(F)(F)F)ccc2[nH]c1=O | > 200 µM | > 200 µM | 
CCOC(=O)C(Cc1c[nH]c2ccc(N)cc12)(NC(C)=O)C(=O)OCC | > 200 µM | > 200 µM | 
O=c1c(=[n+]2ccc(=C([O-])c3ccccc3)cc2)/c(=N/S(=O)(=O)c2ccccc2)c(=O)c2ccccc12 | > 200 µM | 6.17 µM | 
O=C1C(C(O)(C(F)(F)F)C(F)(F)F)CCC1C(O)(C(F)(F)F)C(F)(F)F (stereo not given) |  |  | inactive
CC1=CC2=C(C#N)C(=O)OC2(C)C(c2ccccc2)C1 (stereo not given) | > 200 µM | 117 µM | 
c1cncc(C2N3CCCCC3[C@@H]3c4[nH]c5ccccc5c4CCN23)c1 (stereo not given in full) | > 97.7 µM | > 97.7 µM | 
Cn1cc2ccccc2c1-c1nc(F)nc(Oc2ccc3c(c2)CC[C@@H]2C3CC[C@@]3(C)C2CC[C@@H]3O)n1 (stereo not given in full) | > 5.5 µM | > 5.5 µM | 

SMILES | EC50 | IC50 | outcome
C/C(CC(=O)Nc1ccc(C)c(C)c1)=N\N(c1ccccc1)c1ccccc1 | > 97.7 µM | > 97.7 µM | 
CN(C)COC(=S)SC(=O)OCCCl | > 200 µM | > 200 µM | 
COC(=O)C1(C(=O)OC)CC(=O)c2cc3c(cc2-c2c(cc(OC)c(OC)c2OC)C1)OCO3 | > 28.8 µM | > 28.8 µM | 
COc1ccc(C2S/C(=C\c3cccc([N+](=O)[O-])c3)C(=O)N2NC(=O)Cc2ccccc2)cc1 (stereo not given) | > 39.8 µM | > 39.8 µM | 
COC1C=CC(O)C(CO)O1 (stereo not given) |  |  | inactive
CCCCCCCCCCCCCCOCCS(=O)(=O)O | > 200 µM | 52.5 µM | 
O=C(/C=C/c1c(O)ccc2ccccc12)c1ccc([N+](=O)[O-])cc1 | 33.9 µM | 58.9 µM | 
BrCc1ccc2ccc3ccc(CBr)nc3c2n1 | > 200 µM | 3.72 µM | 
CCC(=O)OCNC(=O)NNC(=O)CCCC(=O)NNC(=O)NCOC(=O)CC | > 200 µM | > 200 µM | 
Cc1ccc(S(=O)(=O)n2cnc(CC(NC(=O)C3CCC(=O)N3C(=O)OCc3ccccc3)C(=O)N3CCCC3C(=O)NN)c2)cc1 (stereo not given) | > 200 µM | > 200 µM | 
Cc1cc(C)c(P2C(=C(O[Si](C(C)C)(C(C)C)C(C)C)C(C)(C)C)C2(c2ccccc2)c2ccccc2)c(C)c1 (stereo not given) | > 100 µM | > 100 µM | 
COc1ccc(/C=C/C(=O)c2ccccc(=O)c2O)cc1 | > 63.1 µM | 3.39 µM | 
CC1NS(=O)(=O)N(C)C1=O (stereo not given) |  |  | inactive
COC1/C=C\OC2(C)Oc3c(C)c(O)c4c(c3C2=O)C(=O)C=C(NC(=O)/C(C)=C\C=C/C(C)C(O)C(C)C(O)C(C)C(OC(C)=O)C1C)C4=O (stereo not given) | > 200 µM | 2.69 µM | 
O=C1C(Cl)=C(Cl)C(=O)N1c1cccc(C(F)(F)F)c1 |  |  | inactive
COc1cc(C(=C2SCCS2)c2nccc3cc(OC)c(OC)cc23)c([N+](=O)[O-])cc1OC |  |  | inactive
O=C(CC(O)(C(F)(F)F)C(F)(F)F)C(CCCl)C(O)(C(F)(F)F)C(F)(F)F (stereo not given) | > 200 µM | 33.1 µM | 
Cc1cn(C2CCC(=O)C2)c(=O)[nH]c1=O (stereo not given) |  |  | inactive
Cc1nc2ccccc2c2nnc(SCC(=O)N(Cc3ccccc3)c3ccccc3)n12 | > 200 µM | > 200 µM | 
C=C(C)C1Cc2c(cc3c(c2O)c(=O)c2ccccc2n3C)O1 (stereo not given) | > 200 µM | 1.17 µM | 
COc1cccc(-c2c(C#N)c(N)nc3c2CCS(=O)(=O)c2ccc(C)cc2-3)c1 | > 200 µM | > 200 µM | 
COc1ccccc1C1ON=C(c2ccc([N+](=O)[O-])cc2)N1C12CC3CC(CC(C3)C1)C2 (stereo not given) | > 200 µM | > 200 µM | 
